The values below come from patent US10980830B2, “Systems and methods for treating skin conditions with magnesium ion compositions” (priority 2017, dated 2021).

Data set [1] relates to recurrent plaque psoriasis.
The test system of data set [2] is adhesive capsulitis. Particulars: for pain with active range of motion of the shoulder: after 16 hours of continued use. As to the method:
A second attempt using transdermal magnesium treatment to affect the pain and inflammation associated with adhesive capsulitis was performed. A 1.3 cc of 50% magnesium sulfate solution (APP Fresenius Kabi Lake Zurich, Ill. NDC63323-064-10) was placed on the positive dispersal pad in an iontophoresis device (iontoPatch 80 manufactured by Travini Medical). The NaCl solution supplied with the device was placed on the negative patch. The positive patch was placed over the tender area on the lateral shoulder and kept in place for 10 hours. It was applied at 8:00 pm and removed the next morning before showering at 6:00 am. […] After showering a second replacement patch prepared in the same manner was placed at 6:15 am, 15 minutes after the first iontoPatch was removed.
The positive side of the patch now placed over a tender area on the anterior shoulder. The second patch application was kept in place for a total of 13.5 hours.

The test system of data set [3] is plaque psoriasis. The source says:
In another example, a person with plaque psoriasis on the extensor surface of their right knee for over 15 years was started on magnesium treatment. Prior treatment with topical hydrocortisone was stopped two weeks prior. Applications using Johnson+Johnson Large Sterile Waterproof Pads with QUILTVENT™ Technology. 1.8 cc solution of 20% magnesium sulfate solution (APP Fresenius Kabi Lake Zurich, Ill. NDC63323-064-10, 50% solution diluted with sterile water) was applied every third day for eight hour durations. […] After the 10 applications of the 20% magnesium sulfate solution, the strength of the solution was increased to 40% for the next ten applications and to 50% for the following 10 applications.
A trial using a 50% solution of magnesium chloride was made by dissolving the magnesium flakes with distilled water (Hinkley Springs) and applied to the Johnson+Johnson Large Sterile Waterproof Pads with QUILTVENT™. Applications were initially for eight hours every third day. […] Following the twentieth application the applications were increased to twelve hour duration with frequency increased to every other day. […] Applications were stopped to determine if total remission been achieved. […] Treatment was continued for three additional treatments.

Data set [4] deals with adhesive capsulitis. Particulars: 1.8 cc of 58% wt/vol on waterproof pad, normal skin, kept in place 24 hours. The source says:
The same Johnson+Johnson waterproof pad was applied to normal skin over my right shoulder affected with an exacerbation of adhesive capsulitis.

Data set [5] has as its system chronic lower back pain. From the text:
In an effort to determine a threshold for therapeutic response the patient was started on gradually increasing concentrations of magnesium chloride placed on a 4 in.×4 in. hydrocolloid dressing (DupDERM™ Extra Thin CGF, by Convatec). Dosages were always approximately 1 cc sprayed onto surface of the dressing using a 20% solution of Magnesium Chloride (Mylan, NDC 674-134-50) diluted to strengths of 2%, 5%, 10% 15%, and undiluted 20%. Sterile water was used as the diluent (Hospira NDC 0409-4887-17). Dressings were kept in place for 8 hours. This method of application continued with daily graduation in the strength of solution applied. […] Using the same method of application, the dosages were increased to 30%, 40% and 50% solutions now made with magnesium flakes dissolved in distilled water.

Data set [6] relates to pain and stiffness of the lower back. The procedure:
In an effort to determine if passive diffusion of magnesium ions applied over a larger surface area under a hydrocolloid dressing could affect the pain and stiffness of the lower back approximately 0.8 mL of 50% magnesium chloride solution was sprayed on a 4″×4″ hydrocolloid patch (DuoDERM™ Extra Thin CGF Dressing, by ConvaTec) and the moist patch was placed over the lumbar spine where the pain was now localized. This was kept in place during an 8 hour period. […] A third application of a pre-moistened Duoderm dressing, this time with approximately 0.5 mL of 40% magnesium chloride solution, sprayed onto the surface prior to application to the lumbar spine area and worn for 48 hours continuously.

Data set [7] has as its system sacroiliac (SI) joints pain and stiffness. From the text: In another example, a trial of transdermal magnesium ions delivered via iontophoresis in an effort to relieve pain, tenderness, and stiffness localized to sacroiliac (SI) joints. A patient with symptoms including exacerbation of chronic low back pain associated with pain, stiffness, and tenderness of both sacroiliac joints with pain radiating to the right iliac crest over a five week period. Symptoms were moderate to severe enough to make standing erect difficult at times and walking was slow and deliberate.
An iontophoresis pad with 120 mg of magnesium chloride diluted in 4 cc of distilled water was placed over the right sacroiliac joint for 80 minutes for delivery of 40 mA minutes with a delivery setting of 0.5 mA/minute at 8:00 pm.
A second identical dose was delivered with the same iontophoresis electrodes in place. […] Ten minutes following delivery of the first dose to the […] SI joint a second identical iontophoresis dose was delivered with the same electrodes in place.

In data set [8] the test system is plaque psoriasis. The source holds these as a separate data set.
Source text: Johnson+Johnson Large Sterile Waterproof Pads with QUILTVENT™ Technology were obtained. These are similar to large waterproof bandaids measuring 2.875 inches×4 inches with a central pad that measured 1.85 inches×3 inches.
Where [9] appears, read: 1.8 cc of 20% solution, 8 h every third day, following 7 applications.
The mark [10] stands for this setting: after increasing strength to 40% and 50% (10 applications each).
[11] abbreviates: 50% solution, after 15 applications.
Where [12] appears, read: 50% solution, after 20 applications plus ten 12 h applications every other day.
Setting [13] is: 50% solution, two weeks after applications were stopped.

Read-outs that look alike come from different tables or passages of the source.

Consider `O=S(=O)([O-])[O-].[Mg+2]` [magnesium sulfate], for which the “resolution of scaliness and erythema” value in data set [1] (1 cc of 1% solution intra-dermal once daily for four days, not covered, day 14 following the injections) is on record as 80%. Moreover, the “inflammatory process and erythema” value in data set [1] (1 cc of 1% solution intra-dermal once daily for four days, not covered, over the next few days) is “reduction”. In data set [1] (after 1% injections plus iontophoresis of 1.5 cc 50% solution on days 16 and 18, by day 28), the “remission status of the recurrent 1 cm plaque” value is reported as “complete remission”. Besides, the “effect on a small area of recurrent plaque psoriasis” value in data set [1] (intra-dermal injections of 1% solution) is recorded as “effective”. Further, the “improvement in pain with active range of motion of the shoulder” value in data set [2] (1.3 cc of 50% solution, iontophoresis, after 10 hours) is 40%. The “active range of motion, affected right versus unaffected left shoulder” value in data set [2] (50% solution, iontophoresis, after 16 hours) is “no difference”. In addition, the “pain with active range of motion of the shoulder” value in data set [2] (50% solution, iontophoresis) is listed as “no pain”. The “pain with active range of motion of the shoulder” value in data set [2] (50% solution, iontophoresis, listed as magnesium) is given as “complete relief”. Also, the “reduction in pain with active range of motion of the shoulder” value in data set [2] (50% solution, iontophoresis, patches worn for a total of 12 hours) came to 80%. The “duration of the beneficial effect” value in data set [2] (after two iontophoresis patches with 50% solution) was “no further treatment was required over the next 10 months”. For the same compound, in data set [3] (setting [9]), the itching entry is given as “almost total relief” and the reduction in scaling was 50%. In addition, the course of improvement result in data set [3] (20%, then 40% and 50% solution) is “plateaued following the first 10-12 applications”. In data set [3] (setting [10]), the scaling between applications entry is recorded as “persistent scaling” and the “thickness of persisting dermal hypertrophy” value is reported as “approximately 3 mm”.
On to `[Cl-].[Cl-].[Mg+2]` [magnesium chloride], for which the “pain associated with adhesive capsulitis” value in data set [4] is reported as “no improvement”. Further, in data set [5] (30%, 40% and 50% solutions on hydrocolloid dressing, 8 hours), the “improvement in pain and stiffness” value is reported as “incremental therapeutic benefit”. In addition, in data set [5] (50% solution on hydrocolloid dressing, after the 8 hour application), the “greatest benefit estimated by the patient” value is “over 70%”. Further, the “improvement in pain or stiffness” value in data set [5] (about 1 cc of 2% or 5% solution on hydrocolloid dressing, 8 hours) is given as “no therapeutic improvement”. For the same compound, the “improvement in pain and stiffness” value in data set [5] (about 1 cc of 10% solution on hydrocolloid dressing, after 8 hours) is 10-20%. Further, the “improvement in pain and stiffness, estimate of the patient” value in data set [5] (about 1 cc of 15% and 20% solution on hydrocolloid dressing, 8 hours) is given as 20-40%. The “pain and stiffness in the lower back” value in data set [6] (50% solution on hydrocolloid dressing for a total of 9.5 hours) is given as “complete relief”. Moreover, the “skin at the application area after the first patch” value in data set [6] (50% solution on hydrocolloid patch, after removal of the first patch) was “slightly hyperemic”. In addition, the “sensation on application of the second patch” value in data set [6] (50% solution on hydrocolloid patch, second application to the same area) is on record as “transient burning sensation”. In addition, in data set [6] (about 0.8 mL of 50% solution on 4x4 in. hydrocolloid patch, 8 hour period), the “improvement in pain and stiffness of the lower back” value is on record as 80%. In data set [6] (after 9.5 hours of 50% solution on hydrocolloid dressing), the “duration of complete relief” value was 48 h. For the same compound, the “severity of recurring discomfort and stiffness relative to the original pain and stiffness” value in data set [6] (on the third day after the 50% solution patches) turned out to be 20%. In addition, the “discomfort and stiffness of the lower back” value in data set [6] (third dressing, about 0.5 mL of 40% solution, after eight hours) is “Resolution”. In addition, the “improvement in pain and stiffness of the right SI joint” value in data set [7] (120 mg in 4 cc water, iontophoresis 40 mA minutes, five hours after the first dose) is on record as “approximately 50%”. Besides, the “duration of the improvement” value in data set [7] (after two iontophoresis doses on each SI joint) is reported as “lasted throughout the next day”. Further, in data set [7] (two iontophoresis doses of 120 mg in 4 cc, five hours after completion), the “improvement in pain and stiffness of the right SI joint” value worked out at 80%. In addition, the “reduction in pain and stiffness of the left SI joint” value in data set [7] (two iontophoresis doses of 120 mg in 4 cc, two hours after treatments ended) is reported as around 90%. Besides, the “skin finding over the previous psoriasis plaque” value in data set [8] (58% wt/vol solution kept in place for 24 hour periods, resolved with days) is given as “small 2-4 mm painless flat scabs developed”. Moreover, in data set [8] (58% wt/vol solution on occlusive dressing, following the first application), the “time until erythema and scales of the plaque started to improve” value was at most 24 h. Also, in data set [8] (58% wt/vol solution, twelve applications, by the start of week four), the “remission status of the psoriasis plaque” value is reported as “complete remission”. For the same compound, the “duration of complete remission of the psoriatic lesion” value in data set [8] (after pads, prophylactic daily 50% wt/vol spray into the fourth month) is on record as “continued into the twelfth month”. For the same compound, in data set [3] (50% solution, 8 h every third day, within days of starting), the “fine scaliness and inflammation, early response” value was “immediate improvement”. For the same compound, in data set [3] (setting [11]), the dermal hypertrophy result is recorded as “improvement”, the fine scales result is on record as “elimination” and the improvement in inflammation is 90-95%. Further, in data set [3] (setting [12]), the dermal hypertrophy result is listed as “resolved” and the fine scaliness entry is on record as “resolved”. Besides, in data set [3] (setting [13]), the “finding under double polarized light head set apparatus” value is recorded as “small erythematous islands were visualized” and the skin appearance result is listed as “appeared normal”.
